Laboratory results as given in publication PMC6905855, “Agonist-specific voltage-dependent gating of lysosomal two-pore Na^+ channels” (eLife, 2019).
“And” between values parts separate entries of the source, which are not always exact repeats. Equal values may be shown once. “Also recorded” adds a separate entry of the source.

Columns and labels:
[1] = molecular target: T1, surface-expressing mutant TPC2 channel (TPC2^LL/AA) in HEK293 cells (Homo sapiens, UniProt Q8NHX9, L11A/L12A); experiment: Whole-cell recordings of ITPC2-LL/AA; assay type: cell-based; conditions: for voltage-dependent inactivation of ITPC2, I1s / 0s: @-140mV, whole-cell
T1 construct: expressed in transfected cells; host or cells: HEK293
T1 sequence (Q8NHX9 whole entry L11A/L12A): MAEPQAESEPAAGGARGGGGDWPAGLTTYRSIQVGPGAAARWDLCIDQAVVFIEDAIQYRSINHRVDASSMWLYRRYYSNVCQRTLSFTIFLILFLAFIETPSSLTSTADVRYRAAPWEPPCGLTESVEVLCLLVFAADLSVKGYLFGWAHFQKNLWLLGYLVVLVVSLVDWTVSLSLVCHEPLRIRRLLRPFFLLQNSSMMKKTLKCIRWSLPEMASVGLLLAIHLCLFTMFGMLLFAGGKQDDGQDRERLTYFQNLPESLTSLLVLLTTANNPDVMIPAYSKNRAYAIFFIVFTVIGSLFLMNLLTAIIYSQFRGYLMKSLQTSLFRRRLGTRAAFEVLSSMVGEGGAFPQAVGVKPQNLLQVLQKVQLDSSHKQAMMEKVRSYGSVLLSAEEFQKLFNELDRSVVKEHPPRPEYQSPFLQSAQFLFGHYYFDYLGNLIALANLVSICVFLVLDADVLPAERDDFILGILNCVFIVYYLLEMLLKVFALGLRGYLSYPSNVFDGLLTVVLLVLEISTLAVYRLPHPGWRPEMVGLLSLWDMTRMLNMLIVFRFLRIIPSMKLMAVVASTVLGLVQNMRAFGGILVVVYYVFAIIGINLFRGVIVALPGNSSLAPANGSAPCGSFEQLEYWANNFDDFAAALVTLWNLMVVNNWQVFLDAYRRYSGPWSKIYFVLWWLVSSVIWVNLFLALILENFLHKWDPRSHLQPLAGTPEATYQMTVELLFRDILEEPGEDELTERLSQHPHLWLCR
In short: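 HEK293 cells transiently expressing EGFP-tagged human TPC2 L11A/L12A, a plasma-membrane-targeted mutant, recorded 24–36 h post-transfection. Whole-cell patch clamp with fast perfusion of bath solutions; currents digitized at 10 kHz and filtered at 2 kHz.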

hTPC2 = molecular target: T2, hTPC2 (Homo sapiens, UniProt Q8NHX9); experiment: Whole-endolysosome recordings of ITPC2; assay type: biochemical; conditions: for Dose-dependent activation of TPC2 (normalized current): individual patches; for inactivation of ITPC2, I500ms / I10ms: @-120mV
T2 construct: expressed in transfected cells; host or cells: Cos1 and HEK293
T2 sequence (Q8NHX9 whole entry): as the sequence (Q8NHX9 whole entry L11A/L12A) above, with A11L, A12L counted along it

hTPC1 = molecular target: T3, hTPC1 (Homo sapiens, UniProt Q9ULQ1); experiment: Whole-endolysosome recordings of ITPC1; assay type: biochemical
T3 construct: expressed in transfected cells; host or cells: Cos1
Method: It was therefore of interest to explore whether TCAs/LyNa-VAs could also act on TPC1. To investigate this, we used two different voltage paradigms. […] Second, we used a tail current paradigm to measure the amplitude of the peak inward current at −120 mV following prolonged steps to various potentials (Figure 4E).
Figure 4. […] HP = 0 mV. […] Dotted lines in A indicate where the currents were measured. […] Data are presented as Mean ± S.E.M (n = 3 patches). […] (G) Normalized I-V plots of basal voltage-dependent currents in WT TPC1- and TPC1^R540I-transfected cells. […] Figure 4—source data 1. […] Figure 4—figure supplement 1. […] (A) A voltage protocol that elicited ITPC1 tail currents as shown in Figure 4E (from −140 to 100 mV with a ∆V = 20 mV, 1 s with a 10 s inter-step interval). Arrows indicate where tail currents were measured. (B) A voltage protocol that elicited ITPC1 tail currents as shown in C. […] HP = 0 mV. […] (A) Basal whole-endolysosome ITPC1 (left) or ITPC1-R540I (right) was elicited by voltage steps (−140 to +100 mV with ΔV = 20 mV) in the absence of PI(3,5)P2 in TPC1-transfected Cos1 cells ([She et al., 2019]). Tail currents were elicited at −120 mV. (B) The effects of PI(3,5)P2 (0.3 µM) on ITPC1 (left) and ITPC1-R540I (right) step currents. […] A preconditioning voltage (+80 mV, 0.1 s) was applied before voltage steps starting from −140 to 100 mV (0.5 s, ∆V = 20 mV).
All TPC1 and TPC2 mutants were generated with a site-directed mutagenesis kit (Qiagen) using EGFP- human TPC1 and TPC2 as the templates. All constructs were confirmed by DNA sequencing.
Whole-endolysosome recordings were performed on manually isolated enlarged endolysosomes ([Wang et al., 2012]). In brief, a patch pipette was pressed against a cell and quickly pulled away to slice the cell membrane. Enlarged endolysosomes were released into a dish and identified by monitoring EGFP-TPC1/2 or the mCherry-TPC1/2 fluorescence. After formation of a gigaseal between the patch pipette and the enlarged endolysosome, capacitance transients were compensated. Voltage steps of several hundred mVs with millisecond duration were then applied to break into the vacuolar membrane. The whole-endolysosome configuration was verified by the re-appearance of capacitance transients after break-in.
Data were collected using an Axopatch 200A patch clamp amplifier, Digidata 1440, and pClamp 10.2 software (Axon Instruments). Whole-endolysosome currents were digitized at 10 kHz and filtered at 2 kHz. All experiments were conducted at room temperature (21–23°C), and all recordings were analyzed with pClamp 10.2, and Origin 8.0 (OriginLab, Northampton, MA). The permeability to cations (relative to PNa) was estimated based on following equations ([Lewis, 1979]) and Erev measurement under bi-ionic conditions:(1) PX/PNa=γNa/γX{[Na^+]Luminal/[X^+]Cytoplasmic}{exp([…])} (2) PCa/PNa=γNa/γCa{[Na^+]Cytoplasmic/[4[Ca^2+]Luminal}{exp(ErevF/RT)}{1+exp(ErevF/RT)} where R, T, F, Erev, and γ are, respectively, the gas constant, absolute temperature, Faraday constant, reversal potential, and activity coefficient. The liquid junction potentials were measured and corrected as described ([Neher, 1992]).

[2] = LyNA1 (300 µM)-induced whole-cell ITPC2-LL/AA, individual
[3] = PI(3,5)P2 0.3 µM, LyNa-VA1.2 100 µM, LyNA1 300 µM, individual tests

Nc1nc2ccc(OC(F)(F)F)cc2s1 [LyNA1, Riluzole]
voltage-dependent inactivation of ITPC2, I1s / 0s ([1]; individual recordings): 0.9086 and 1.046 and 0.9409 | voltage-dependent inactivation of ITPC2, I1s / 0s ([1]; mean): 0.9653 | Px/PNa+, Ca2+ [1, 2]: 0.09045 and 0.1026 and 0.1022 and 0.09007 | Px/PNa+, K+ [1, 2]: 0.05625 and 0.0959 and 0.1041 | Px/PNa+, Na+ [1, 2]: 0.8393 and 1.008 and 0.9746 | activation of whole-cell ITPC2-LL/AA (in words) ([1]; bath application, symmetric Na^+, 100 µM where stated): activated large and linear whole-cell currents | cation selectivity of induced whole-endolysosome ITPC2 (in words) (hTPC2): highly selective for Na^+ over K^+ | voltage dependence of TPC2 activation (in words) (hTPC2): voltage independent; also recorded: no apparent voltage-dependent activation | Dose-dependent activation of TPC2 (normalized current) (hTPC2; 10 µM +10nM PI(3,5)P2): 0.03469 and -0.1321 and -0.1628 | Dose-dependent activation of TPC2 (normalized current) (hTPC2; 50 µM +10nM PI(3,5)P2): 0.02967 and -0.04581 and -0.07904 | Dose-dependent activation of TPC2 (normalized current) (hTPC2; 50 µM, absence of PI(3,5)P2): 0.02084 and 0.03963 and 0.0267 | Dose-dependent activation of TPC2 (normalized current) (hTPC2; 100 µM +10nM PI(3,5)P2): 0.3825 and 0.3197 and 0.06652 | Dose-dependent activation of TPC2 (normalized current) (hTPC2; 100 µM, absence of PI(3,5)P2): 0.1347 and 0.1166 and 0.2034 and 0.258 and 0.1062 | Dose-dependent activation of TPC2 (normalized current) (hTPC2; 150 µM +10nM PI(3,5)P2): 0.5952 and 0.5358 and 0.2713 | Dose-dependent activation of TPC2 (normalized current) (hTPC2; 150 µM, absence of PI(3,5)P2): 0.4553 and 0.5013 and 0.5031 and 0.7594 and 0.3882 | Dose-dependent activation of TPC2 (normalized current) (hTPC2; 300 µM +10nM PI(3,5)P2): 0.9432 and 0.8992 and 0.9659 | Dose-dependent activation of TPC2 (normalized current) (hTPC2; 300 µM, absence of PI(3,5)P2): 0.9388 and 0.9543 | Dose-dependent activation of TPC2 (normalized current) (hTPC2; 400 µM +10nM PI(3,5)P2): 1 (2×) and 1.003 | Dose-dependent activation of TPC2 (normalized current) (hTPC2; 400 µM, absence of PI(3,5)P2): 0.9725 and 0.9884 and 0.9899 and 0.9935 and 0.9997 and 0.9921 | EC50 (hTPC2; + PI(3,5)P2 (10 nM)): 175 ± 19 µM | EC50 (hTPC2; - PI(3,5)P2): 181 ± 6 µM | inactivation of ITPC2, I500ms / I10ms (hTPC2; [3]): 0.9047 and 1.003 and 0.9967 and 0.9738 | inactivation of ITPC2, I500ms / I10ms (hTPC2; mean): 0.9697 | combined effect with PI(3,5)P2 on whole-endolysosome ITPC2 (in words) (hTPC2; PI(3,5)P2 50 nM): additive but not synergistic activation; also recorded: Additive effects | Rectification index of ITPC2, I+80mV/I-80mV (hTPC2; [3]): 0.903 and 1.02 and 0.912 and 0.8953 | Rectification index of ITPC2, I+80mV/I-80mV (hTPC2; PI(3,5)P2 0.3 µM, LyNa-VA1.2 100 µM, LyNA1 300 µM, mean): 0.93 ± 0.03 and 0.9325 | activation of whole-endolysosome ITPC2 (in words) (hTPC2; bath application, symmetric Na^+): readily activated ITPC2 | I@500ms/I@10ms (current decline at steady state) (hTPC2; voltage-step protocols, at all potentials): ~1.0 | effect on whole-endolysosome ITPC1 (in words) (hTPC1): inhibited ITPC1
